Data set [1] can be described thus: Cytotoxicity against African green monkey Vero cells assessed as cell viability at 50 uM by MTT assay relative to control. It is filed as cell-based. Conditions: chlorocebus sabaeus, read-out: Activity. A general note: Tetrazolium dyes change colour on reduction, which living cells bring about.
Data set [2] relates to Leishmania donovani. The data set is described as follows: Antileishmanial activity against Leishmania donovani MHOM/IN/80/Dd8 amastigotes harboring luciferase reporter gene infected in mouse J774 cells at 25 uM after 72 hrs by Steady-Glo luminescence assay relative to control. The format is functional. The conditions noted are these: MHOM/IN/80/Dd8, J774, 72 h.
The test system of data set [3] is Leishmania donovani. Nature of the data set: Antileishmanial activity against Leishmania donovani MHOM/IN/80/Dd8 amastigotes harboring luciferase reporter gene infected in mouse J774 cells at 3.12 to 100 uM after 48 hrs by Steady-Glo luminescence assay relative to control. The format is functional. (In general: A reporter such as luciferase makes a cellular process visible.)

Data set [4] can be described thus: Stability in mouse plasma at 10 ug/ml measured after 2 hrs by UPLC analysis relative to control. The conditions noted are these: read-out: Stability. The format is ADME, cell-free.
A short description of data set [5]: Stability in mouse liver microsomes assessed as compound remaining after 1 hr in presence of NADPH by UPLC analysis. The format is ADME, Microsome. The conditions noted are these: read-out: Stability. In general terms: Liver microsomes are a subcellular fraction often used to study metabolism.
Data set [6] can be described thus: Intrinsic clearance in mouse liver microsomes after 1 hr in presence of NADPH by UPLC analysis. It is filed as ADME, Microsome.
In data set [7] the test system is Leishmania donovani. Nature of the data set: Antileishmanial activity against Leishmania donovani promastigotes infected in BALB/c mouse assessed as reduction in parasite burden in spleen at 25 mg/kg, ip administered for 7 days starting at 15 days post-infection and measured after 1 week post last dose Giemsa staining-based assay relative to control. The format is functional.

Data set [8] in a line: Toxicity in BALB/c mouse infected with Leishmania donovani promastigotes assessed as serum AST level at 50 mg/kg , ip measured after 3 to 7 weeks (reference value: 114 U/L). The format is organism-based. The conditions noted are these: in vivo.
Data set [9] relates to Mus musculus. Nature of the data set: Immunostimulatory activity in BALB/c mouse infected with Leishmania donovani promastigotes assessed as induction of TNF-alpha cytokine production at 50 mg/kg administered for 5 days starting at 15 days post infection and measured after 3 to 7 weeks by ELISA. It is filed as functional, organism-based.
Data set [10] has as its system Leishmania donovani. Nature of the data set: Induction of plasma membrane permeabilization in Leishmania donovani promastigotes assessed as increase in fluorescence at 50 uM after 2 hrs by SYTOX green-based flow cytometry analysis relative to control. It is filed as functional.
The subject of data set [11] is Leishmania donovani. The data set is described as follows: Induction of mitochondrial dysfunction in Leishmania donovani promastigotes assessed as reduction in mitochondrial membrane potential at 50 uM after 48 hrs by JC-1 staining-based flow cytometric analysis (reference value: 7.73%). It is filed as functional. Further details: scale not given: the % may be the effect or the level left.

The test system of data set [12] is Leishmania donovani. The data set is described as follows: Induction of mitochondrial membrane depolarization in Leishmania donovani promastigotes assessed as disruption of cristae at 50 uM after 24 hrs by TEM analysis. It is filed as functional, organism-based.
Data set [13] has as its system Leishmania donovani. The data set is described as follows: Induction of apoptosis in Leishmania donovani promastigotes assessed as early apoptotic cells at 50 uM after 24 hrs by Annexin-V/propidium iodide staining based flow cytometric method (reference value: 5.79%). It is filed as functional.
In data set [14] the test system is Leishmania donovani. The data set is described as follows: Induction of bio-energetic collapse in Leishmania donovani promastigotes assessed as reduction in ATP level at 50 uM after 48 hrs by bioluminescence based method relative to control. The format is functional. Further details: scale not given: the % may be the effect or the level left.
Data set [15] is described as follows: Elimination rate constant in BALB/c mouse at 50 mg/kg, ip by HPLC analysis. It is filed as ADME, organism-based. The conditions noted are these: in vivo.
Data set [16] is described as follows: Tmax in BALB/c mouse at 50 mg/kg, ip by HPLC analysis. It is filed as ADME, organism-based. The conditions noted are these: in vivo.
Data set [17] in a line: Cmax in BALB/c mouse at 50 mg/kg, ip by HPLC analysis. The format is ADME, organism-based. The arrangement: dose 50 mg/kg, route intraperitoneal. Conditions: in vivo.
A short description of data set [18]: Toxicity in golden hamster infected with Leishmania donovani amastigotes assessed as effect on body weight at 12.5 to 200 mg/kg, ip administered on alternative days for 4 weeks starting at 4 weeks post-infection. The conditions noted are these: in vivo, 672 h. It is filed as organism-based, Mesocricetus auratus.

Active and inactive are the calls of the source. No cut-off for these calls is given here. Where only a bound is given, the exact number is not on record here.

In the case of `CCOC(=O)C(C(=O)c1ccc(OC)cc1)C(NC(C)=O)c1cccc2ccccc12` (stereo not drawn), the viability at 50 µM in data set [1] came out at 98.7%. Moreover, at 25 µM the inhibition in data set [2] was 64.1%. In addition, the “inhibition (INH)” value in data set [3] is more than 92%. In data set [4], the remaining at 2 h, 10 ug/ml is 81%. In addition, in data set [5], the remaining at 1 h amounted to 86.9%. Moreover, the CLH in data set [6] turned out to be 0.015 mL/min/mg. The inhibition in vivo (in general, the relative decrease from the control value, in per cent) at 25 mg/kg in data set [7] was 68.5%. Moreover, the Activity is 54 to 298 IU/L in data set [8]; 3.1% in data set [10]; 67.97% in data set [11]; 8.56% in data set [13]; more than 67% in data set [14]; “Non-Toxic” in data set [18]. The result in data set [9] was inactive. In addition, the result in data set [12] was Active. Besides, in data set [15], the k el is 3.89e-05 s⁻¹. Also, the Tmax (as a rule, the time at which the peak concentration occurs) in data set [16] was determined as 15 min. Also, the concentration in data set [17] peaked (Cmax) at 2080 ng/mL.

Values taken from ChEMBL document CHEMBL4406843, “β-Amino acid derivatives as mitochondrial complex III inhibitors of L. donovani: A promising chemotype targeting visceral leishmaniasis” (Eur J Med Chem, 2019).
